Usually IC50 stands for the concentration that gives 50% inhibition. One may read the EC50 as the concentration that produces a half-maximal response.

Each structure is given as a SMILES string. Where two headings read alike, the source gives them in different places.

Experiment [1] addresses norepinephrine transporter (Homo sapiens, UniProt P23975). Description: NE uptake: displacement of norephinephrine ligands in vitro (methods of Galli et al.). It counts as binding.
Experiment [2] concerns the target serotonin transporter (Homo sapiens, UniProt P31645). Description: 5-HT uptake: displacement of serotonin ligands in vitro (methods of Gu et al.). In kind it is binding.
Experiment [3] addresses DAT (Homo sapiens, UniProt Q01959). Description: cell-based. Conditions: hDAT cell line; read-out: DA Uptake, Functional Assays (antagonism, EC50). Details: expressed in transfected cells.
For experiment [4], the target named is dopamine transporter (Homo sapiens, UniProt Q01959). Description: DA uptake: displacement of dopamine ligands in vitro (methods of Gu et al.).
Setting [5] is: NE Uptake, Uptake Profile (IC50, nM).
Where [6] appears, read: 5-HT Uptake, Uptake Profile (IC50, nM).
[7] abbreviates: DA Uptake, Uptake Profile (IC50, nM), displacement of dopamine ligands in vitro.
The mark [8] stands for this setting: displacement of serotonin ligands in vitro, read-out: 5-HT Uptake, Uptake Profile (IC50).
[9] abbreviates: read-out: NE Uptake, Uptake Profile (IC50).

Sequence of norepinephrine transporter (P23975 whole entry): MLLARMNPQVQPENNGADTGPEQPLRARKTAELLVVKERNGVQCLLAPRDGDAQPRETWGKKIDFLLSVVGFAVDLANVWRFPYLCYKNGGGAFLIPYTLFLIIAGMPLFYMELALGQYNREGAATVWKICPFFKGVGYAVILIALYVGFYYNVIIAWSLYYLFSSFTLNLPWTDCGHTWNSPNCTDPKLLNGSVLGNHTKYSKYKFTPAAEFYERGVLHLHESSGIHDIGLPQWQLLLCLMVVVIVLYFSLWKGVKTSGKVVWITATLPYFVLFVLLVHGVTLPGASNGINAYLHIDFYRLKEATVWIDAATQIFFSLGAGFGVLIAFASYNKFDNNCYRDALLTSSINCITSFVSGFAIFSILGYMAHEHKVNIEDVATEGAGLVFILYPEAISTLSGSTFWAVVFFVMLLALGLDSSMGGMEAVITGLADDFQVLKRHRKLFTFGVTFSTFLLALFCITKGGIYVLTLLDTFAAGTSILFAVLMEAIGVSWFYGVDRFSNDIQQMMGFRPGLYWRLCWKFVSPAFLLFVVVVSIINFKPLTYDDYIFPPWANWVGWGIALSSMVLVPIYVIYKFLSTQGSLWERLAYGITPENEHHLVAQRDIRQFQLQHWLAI
Sequence of serotonin transporter (P31645 whole entry): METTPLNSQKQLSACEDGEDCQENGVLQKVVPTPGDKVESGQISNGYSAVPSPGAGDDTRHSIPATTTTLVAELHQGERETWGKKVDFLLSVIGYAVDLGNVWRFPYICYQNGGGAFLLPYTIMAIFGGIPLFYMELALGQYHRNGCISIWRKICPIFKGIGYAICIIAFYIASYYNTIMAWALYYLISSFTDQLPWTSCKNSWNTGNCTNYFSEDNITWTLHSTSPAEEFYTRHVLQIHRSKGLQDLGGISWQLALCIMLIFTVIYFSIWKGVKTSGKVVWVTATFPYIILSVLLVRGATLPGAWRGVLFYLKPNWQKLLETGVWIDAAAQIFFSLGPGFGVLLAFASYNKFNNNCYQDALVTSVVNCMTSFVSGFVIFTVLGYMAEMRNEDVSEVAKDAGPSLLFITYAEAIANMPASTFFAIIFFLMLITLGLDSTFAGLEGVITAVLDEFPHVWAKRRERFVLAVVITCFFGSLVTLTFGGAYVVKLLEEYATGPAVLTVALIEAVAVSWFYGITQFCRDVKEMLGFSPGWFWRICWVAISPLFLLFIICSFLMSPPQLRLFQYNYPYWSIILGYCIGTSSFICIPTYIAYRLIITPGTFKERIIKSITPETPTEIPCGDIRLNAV
Sequence of dopamine transporter (Q01959 whole entry): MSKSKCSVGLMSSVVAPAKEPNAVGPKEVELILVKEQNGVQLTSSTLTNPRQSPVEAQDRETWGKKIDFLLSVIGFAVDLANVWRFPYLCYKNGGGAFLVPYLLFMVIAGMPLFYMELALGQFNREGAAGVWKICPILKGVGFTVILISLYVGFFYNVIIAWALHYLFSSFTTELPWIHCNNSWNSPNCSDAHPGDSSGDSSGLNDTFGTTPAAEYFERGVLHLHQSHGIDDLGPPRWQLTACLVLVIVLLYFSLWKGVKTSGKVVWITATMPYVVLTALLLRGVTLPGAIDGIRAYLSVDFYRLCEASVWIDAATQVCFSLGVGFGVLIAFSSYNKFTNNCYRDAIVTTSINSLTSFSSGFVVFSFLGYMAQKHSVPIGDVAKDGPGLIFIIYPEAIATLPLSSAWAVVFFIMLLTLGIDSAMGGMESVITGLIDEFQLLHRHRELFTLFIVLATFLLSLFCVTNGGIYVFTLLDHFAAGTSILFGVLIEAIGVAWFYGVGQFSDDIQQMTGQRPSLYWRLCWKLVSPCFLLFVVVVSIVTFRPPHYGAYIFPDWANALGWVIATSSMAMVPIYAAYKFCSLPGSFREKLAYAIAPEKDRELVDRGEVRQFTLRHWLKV
Sequence of DAT (Q01959 whole entry): as above

For `OCC1CCCN(CC2(c3ccc(Cl)cc3)CCC2)C1` (centres unmarked) [compound 2], the IC50 in experiment [1] (setting [5]) was more than 1000 nM; in experiment [2] (setting [6]), more than 1000 nM; in experiment [4] (setting [7]) it was less than 1000 nM. Moreover, the EC50 in experiment [3] was less than 100 nM.
On to `FC(F)(F)c1ccc(OCC2CCCN(CC3(c4ccc(Cl)cc4)CCC3)C2)cc1` (centres unmarked) [compound 7], for which the IC50 in experiment [1] (setting [5]) is more than 1000 nM; in experiment [2] (setting [6]), more than 1000 nM; in experiment [4] (setting [7]), less than 100 nM. In experiment [3], the 50% effective concentration (EC50) is less than 100 nM.
As for `OC(CN1CCCC(CCc2ccc(C(F)(F)F)cc2)C1)C1(c2ccc(Cl)cc2)CCC1` (single isomer, unassigned) [compound 195, 1-[1-(4-Chloro-phenyl)-cyclobutyl]-2-{3-[2-(4-trifluoromethyl-phenyl)-ethyl]-piperidin-1-yl}-ethanol], the IC50 in experiment [1] (setting [5]) was less than 1000 nM; in experiment [2] (setting [8]), less than 1000 nM; in experiment [4] (setting [7]), less than 100 nM.
For `CN(C)CC(Oc1ccc(C(F)(F)F)cc1)C1CCCN(CC2(c3ccc(Cl)cc3)CCC2)C1` (racemic) [compound 174], the results for the IC50 in experiment [1] (setting [5]), in experiment [2] (setting [8]) and in experiment [4] (setting [7]) were less than 1000 nM, less than 100 nM and less than 100 nM, respectively.
As for `FC(F)(F)c1ccc(OCC2CCCN(CC3COc4ccccc4O3)C2)cc1` (single isomer, unassigned) [compound 178, 1-(2,3-Dihydro-benzo[1,4]dioxin-2-ylmethyl)-3-(4-trifluoromethyl-phenoxymethyl)-piperidine], the IC50 in experiment [1] (setting [5]), in experiment [2] (setting [8]) and in experiment [4] (setting [7]) was less than 1000 nM throughout.
On to `COc1ccc2[nH]cc(CCN3CCCC(COc4ccc(C(F)(F)F)cc4)C3)c2c1` (centres unmarked) [compound 220, 5-Methoxy-3-{2-[3-(4-trifluoromethyl-phenoxymethyl)-piperidin-1-yl]-ethyl}-1H-indole], for which the IC50 is less than 1000 nM in experiment [1] (setting [5]), less than 100 nM in experiment [2] (setting [8]) and less than 1000 nM in experiment [4] (setting [7]).
Consider `OC(CN1CCCC(COc2ccc(OC(F)(F)F)cc2)C1)C1(c2ccc(Cl)cc2)CCC1` (centres unmarked) [compound 210, 1-[1-(4-Chloro-phenyl)-cyclobutyl]-2-[3-(4-trifluoromethoxy-phenoxymethyl)-piperidin-1-yl]-ethanol], for which the IC50 in experiment [1] (setting [5]) is less than 100 nM; in experiment [2] (setting [8]), less than 1000 nM; in experiment [4] (setting [7]), less than 10 nM.
Turning to `OC(CN1CCCC(COc2ccc(C(F)(F)F)cc2)C1)c1c[nH]c2ccc(Cl)cc12` (centres unmarked) [compound 222, 1-(5-Chloro-1H-indol-3-yl)-2-[3-(4-trifluoromethyl-phenoxymethyl)-piperidin-1-yl]-ethanol], the IC50 in experiment [1] (setting [5]) is more than 1000 nM; in experiment [2] (setting [8]) it was less than 1000 nM; in experiment [4] (setting [7]), more than 1000 nM.
In the case of `CC(CC1CCCN(CC2(c3ccc(Cl)cc3)CCC2)C1)c1ccccc1` (stereo in doubt) [compound 186, (S)-1-[1-(4-Chloro-phenyl)-cyclobutylmethyl]-3-(2-phenyl-propyl)-piperidine], the IC50 in experiment [1] (setting [5]), in experiment [2] (setting [8]) and in experiment [4] (setting [7]) was less than 1000 nM each time.
On to `COc1ccccc1C1(C(O)CN2CCCC(COc3ccc(C(F)(F)F)cc3)C2)CCC1` (centres unmarked) [compound 164], for which the IC50 is less than 1000 nM in experiment [1] (setting [5]), less than 100 nM in experiment [2] (setting [8]) and less than 10 nM in experiment [4] (setting [7]).
For the compound `OC(CN1CCCC(CCc2ccccc2)C1)c1ccc(Cl)cc1` (centres unmarked) [compound 140, 1-(4-Chloro-phenyl)-2-(3-phenethyl-piperidin-1-yl)-ethanol], the IC50 in experiment [1] (setting [5]), in experiment [2] (setting [8]) and in experiment [4] (setting [7]) was less than 100 nM throughout.
On to `COC(CC1CCCN(CC2(c3ccc(Cl)cc3)CCC2)C1)c1ccccc1` (stereo in doubt) [compound 184, (S)-[1-[1-(4-Chloro-phenyl)-cyclobutylmethyl]-3-(2-methoxy-2-phenyl-ethyl)-piperidine]], for which the IC50 in experiment [1] (setting [5]), in experiment [2] (setting [8]) and in experiment [4] (setting [7]) was less than 1000 nM each time.
Turning to `COc1ccc(C2(CN3CCC[C@@H](COc4ccc(OC(F)(F)F)cc4)C3)CCC2)cc1` [compound 170, (R)-1-[1-(4-Methoxy-phenyl)-cyclobutylmethyl]-3-(4-trifluoromethoxy-phenoxymethyl)-piperidine], the IC50 in experiment [1] (setting [5]) is less than 1000 nM; in experiment [2] (setting [8]), less than 1000 nM; in experiment [4] (setting [7]), less than 10 nM.
In the case of `O=C(CN1CCCC(COc2ccc(C(F)(F)F)cc2)C1)C1(c2ccc(Cl)cc2)CCC1` (centres unmarked) [compound 23, 1-[1-(4-Chlorophenyl)cyclobutyl]-2-[3-(4-trifluoromethyl-phenoxymethyl)piperidin-1-yl]ethanone], the figures for the IC50 in experiment [1] (setting [5]), in experiment [2] (setting [8]) and in experiment [4] (setting [7]) were less than 1000 nM, more than 1000 nM and less than 100 nM, respectively.
For the compound `OC(CN1CCCC(CCc2ccc(C(F)(F)F)cc2)C1)c1ccc(Cl)cc1` (single isomer, unassigned) [compound 154, 1-(4-Chloro-phenyl)-2-{3-[2-(4-trifluoromethyl-phenyl)-ethyl]-piperidin-1-yl}-ethanol], the results for the IC50 in experiment [1] (setting [5]), in experiment [2] (setting [8]) and in experiment [4] (setting [7]) were less than 100 nM, less than 10 nM and less than 10 nM, respectively.
As to `NCC1CCCN(CC2(c3ccc(Cl)cc3)CCC2)C1` (centres unmarked) [compound 230, C-{1-[1-(4-Chloro-phenyl)-cyclobutylmethyl]-piperidin-3-yl}-methylamine], the IC50 in experiment [1] (setting [9]) was more than 1000 nM; in experiment [2] (setting [8]), more than 1000 nM; in experiment [4] (setting [7]), less than 100 nM.
Take `O=C(CN1CCCC(CCc2ccc(C(F)(F)F)cc2)C1)c1ccc(Cl)cc1` (centres unmarked) [compound 150, 1-(4-Chloro-phenyl)-2-{3-[2-(4-trifluoromethyl-phenyl)-ethyl]-piperidin-1-yl}-ethanone]: the 50% inhibitory concentration (IC50) in experiment [1] (setting [9]), in experiment [2] (setting [8]) and in experiment [4] was more than 1000 nM each time.
Consider `OC(CN1CCCC(COc2ccc(C(F)(F)F)cc2)C1)C1(c2ccccc2OC(F)(F)F)CCC1` (single isomer, unassigned) [compound 227, 1-[1-(2-Trifluoromethoxy-phenyl)-cyclobutyl]-2-[3-(4-trifluoromethyl-phenoxymethyl)-piperidin-1-yl]-ethanol], for which the IC50 in experiment [1] (setting [5]) is more than 1000 nM; in experiment [2] (setting [8]), less than 1000 nM; in experiment [4] (setting [7]), less than 1000 nM.
On to `Fc1ccc(OC[C@@H]2CCCN(CC3(c4ccc(Cl)cc4)CCC3)C2)cc1` [compound 133, (R)-1-[1-(4-Chloro-phenyl)-cyclobutylmethyl]-3-(4-fluoro-phenoxymethyl)-piperidine], for which the IC50 in experiment [1] (setting [5]) is less than 1000 nM; in experiment [2] (setting [6]), more than 1000 nM; in experiment [4] (setting [7]) it was less than 1000 nM.
For `FC(F)(F)c1ccc(OCCC2CCCN(CC3(c4ccc(Cl)cc4)CCC3)C2)cc1` (centres unmarked) [compound 39, 1-[1-(4-Chloro-phenyl)-cyclobutylmethyl]-3-[2-(4-trifluoromethyl-phenoxy)-ethyl]-piperidine], the IC50 is less than 100 nM in experiment [1] (setting [5]), more than 1000 nM in experiment [2] (setting [8]) and less than 10 nM in experiment [4] (setting [7]).
Consider `FC(F)(F)c1ccc(OCC2CNCCCO2)cc1` (centres unmarked) [compound 15, 2-(4-trifluoromethyl-phenoxymethyl)-[1,4]oxazepane], for which the IC50 in experiment [1] (setting [9]), in experiment [2] (setting [8]) and in experiment [4] (setting [7]) was more than 1000 nM throughout.
With `OC(CN1CCCC(CCc2ccccc2)C1)c1ccc(Cl)cc1` (single isomer, unassigned) [compound 142, 1-(4-Chloro-phenyl)-2-(3-phenethyl-piperidin-1-yl)-ethanol], the half-maximal inhibitory concentration (IC50) in experiment [1] (setting [5]) is less than 1000 nM; in experiment [2] (setting [8]), less than 100 nM; in experiment [4] (setting [7]), less than 1000 nM.
`FC(F)(F)c1ccc(SCC2CCCN(CC3(c4ccc(Cl)cc4)CCC3)C2)cc1` (centres unmarked) [compound 78]: the 50% inhibitory concentration (IC50) was less than 1000 nM in experiment [1] (setting [5]), more than 1000 nM in experiment [2] (setting [8]) and less than 1000 nM in experiment [4] (setting [7]).
For the compound `FC(F)(F)c1ccc(OCC2CN(CC3(c4ccc(Cl)cc4)CCC3)C2)cc1` [compound 105, methanesulfonic acid 1-[1-(4-chloro-phenyl)-cyclobutylmethyl]-3-(4-trifluoromethyl-phenoxymethyl)-azetidine], the values for the IC50 in experiment [1] (setting [5]), in experiment [2] (setting [8]) and in experiment [4] (setting [7]) were less than 100 nM, less than 1000 nM and less than 10 nM, respectively.
Consider `OC(C[C@H]1CCCN(CC2(c3ccc(Cl)cc3)CCC2)C1)c1ccccc1` (stereo in doubt) [compound 182, (S)-[2-{1-[1-(4-Chloro-phenyl)-cyclobutylmethyl]-piperidin-3-yl}-1-phenyl-ethanol]], for which the figures for the IC50 in experiment [1] (setting [9]), in experiment [2] (setting [8]) and in experiment [4] (setting [7]) were more than 1000 nM, less than 1000 nM and less than 100 nM, respectively.
Regarding `OC(CN1CCCC(COc2ccc(C(F)(F)F)cc2)C1)C1(c2ccc(OC(F)(F)F)cc2)CCC1` (centres unmarked) [compound 206, 1-[1-(4-Trifluoromethoxy-phenyl)-cyclobutyl]-2-[3-(4-trifluoromethyl-phenoxymethyl)-piperidin-1-yl]-ethanol], the figures for the IC50 in experiment [1] (setting [5]), in experiment [2] (setting [8]) and in experiment [4] (setting [7]) were less than 1000 nM, less than 1000 nM and less than 100 nM, respectively.
`OC(CN1CCCC(COc2ccc(C(F)(F)F)cc2)C1)C1(c2ccc3c(c2)OCO3)CCC1` (centres unmarked) [compound 165]: the IC50 in experiment [1] (setting [5]) is less than 100 nM; in experiment [2] (setting [8]), less than 100 nM; in experiment [4] (setting [7]), less than 10 nM.
Regarding `FC(F)(F)c1ccc(OCC2CCCN(CC3COc4ccccc4O3)C2)cc1` (single isomer, unassigned) [compound 179, 1-(2,3-Dihydro-benzo[1,4]dioxin-2-ylmethyl)-3-(4-trifluoromethyl-phenoxymethyl)-piperidine], the IC50 in experiment [1] (setting [5]) was less than 1000 nM; in experiment [2] (setting [8]), less than 1000 nM; in experiment [4] (setting [7]) it was more than 1000 nM.
Turning to `OC(CN1CCCC(CCc2ccc(OC(F)(F)F)cc2)C1)c1ccc(Cl)cc1` (centres unmarked) [compound 201], the IC50 in experiment [1] (setting [5]) was less than 1000 nM; in experiment [2] (setting [8]) it was less than 1000 nM; in experiment [4] (setting [7]), less than 10 nM.

Values taken from patent publication US7294637B2 (Sepracor, Inc., priority 2000, dated 2007).
